Laboratory results taken from PubChem BioAssay AID1996.
Values after ≈ are worked out from the molar mass of the structure shown.

Conditions: buffer; pH 7.4; 200.0 µM

| Structure (SMILES) | solubility kinetic [µg/mL] |
| --- | --- |
| CC(Oc1ccc(Cl)cc1C(N)=O)C(=O)N1CCc2ccccc21 (centres undefined) | 9.6 (≈ 27.8 µM) |
| CCOc1ccc(N2C(=O)CC(Cc3cc(C)cc(C)c3)C2=O)cc1 (centres undefined) | 4 (≈ 11.9 µM) |
| COc1cc2c(C#N)c(N3CCc4ccccc4C3)nc(N)c2c(N)n1 | 1.6 (≈ 4.62 µM) |
| CC(=O)N(Cc1cccs1)Cc1cc2cc(C)c(C)cc2nc1Cl | 4.3 (≈ 12 µM) |
| CCn1c(=O)c2cc(C(=O)NC(C)C)sc2c2ccccc21 | 1 (≈ 3.18 µM) |
| O=C(NCc1ccco1)C1CC(c2ccc(F)cc2)=NO1 (centres undefined) | 8 (≈ 27.8 µM) |
| O=C(OCCN=C1NS(=O)(=O)c2ccccc21)c1cccs1 | 2.5 (≈ 7.43 µM) |
| CCc1ccc(C2NC(=O)c3ccccc3O2)cc1 (centres undefined) | 2.8 (≈ 11.1 µM) |
| CCC(C)Nc1nc2c(c(=O)[nH]c(=O)n2C)n1CCOc1ccccc1 (centres undefined) | 19.8 (≈ 55.4 µM) |
| CC1CCN(C(=O)c2ccc3ccccc3c2)CC1 | 23.8 (≈ 93.9 µM) |
| Nc1ncnc2c1nc(Br)n2[C@@H]1O[C@@H]2COP(=O)([O-])O[C@H]2[C@H]1O.[Na+] | > 64.5 |
| COc1cccc(N2C(=O)CC(Sc3nc(C)cc(C)n3)C2=O)c1 (centres undefined) | > 51.5 |
| Cc1cccc(N2C(=O)c3ccc(Br)cc3C2=O)n1 | > 47.6 |
| N#Cc1ccc(NC(=O)C2=COCCO2)cc1 | > 34.5 |
| Cc1ccc(C)c(NC(=O)C2CCN(C(=O)c3cccs3)CC2)c1 | > 51.4 |
| O=c1[nH]c(O)c(C=Nc2ccc(F)c(Cl)c2)c(=O)[nH]1 | 14 (≈ 49.4 µM) |
| CCOC(=O)N1CCN(CC(O)c2c[nH]c3ccccc23)CC1 (centres undefined) | > 47.6 |
| CC(=O)Nc1ccc(Oc2cncc(Cl)c2)nc1 | > 39.6 |
| N#Cc1c(-c2ccccc2)cc(-c2ccccc2)nc1SCCC(=O)O | > 54.1 |
| O=C(Cc1ccccc1F)NC1CCCc2ccccc21 (centres undefined) | 16.7 (≈ 58.9 µM) |
| COc1ccccc1OCc1nc(C#N)c(N2CCCC2)o1 | 39.1 (≈ 131 µM) |
| CC(NC(=O)COC(=O)c1ccccc1F)C1CC2CCC1C2 (centres undefined) | > 47.9 |
| O=C1C2C3c4ccccc4C(c4ccccc43)[C@@H]2C(=O)N1c1ccccn1 (some centres undefined) | 2.9 (≈ 8.23 µM) |
| O=C(N/C(=C/c1ccco1)C(=O)N1CCc2ccccc21)c1ccco1 | 4.4 (≈ 12.6 µM) |

| Structure (SMILES) | solubility kinetic [µg/mL] |
| --- | --- |
| COc1ccc(NC(=O)Cc2ccc(C)c(C)c2)cc1S(=O)(=O)N1CCCCC1 | 12.8 (≈ 30.7 µM) |
| COc1ccc(CNC(=O)c2cc(C(=O)C3CC3)c[nH]2)cc1 | 2 (≈ 6.7 µM) |
| O=C(Oc1ccc(C(=S)N2CCOCC2)cc1)c1ccccc1F | 36.6 (≈ 106 µM) |
| CC(Nc1c[nH]c(=O)[nH]c1=O)c1ccccc1 (centres undefined) | 22.3 (≈ 96.4 µM) |
| COc1ccc(Cl)cc1NC(=O)Cn1c(=O)oc2ccccc21 | 1.2 (≈ 3.61 µM) |
| O=C(O/N=C1\CCS(=O)(=O)c2sccc21)C1CC1 | > 42.8 |
| CCN(CC(=O)N1CCCC1)S(=O)(=O)c1cc(C)ccc1OC | 49.5 (≈ 145 µM) |
| COc1ccc2ccccc2c1CN1CCSCC1 | 21.5 (≈ 78.6 µM) |
| CCOc1ccc(C(=O)CCC(=O)Nc2ccc(C)cn2)cc1 | 5.6 (≈ 17.9 µM) |
| CCOC(=O)c1sc(NC(=O)C2CCCCC2)nc1C | 5 (≈ 16.9 µM) |
| O=[N+]([O-])c1ccc2nc(C3CCCCC3)[nH]c2c1 | 31.5 (≈ 128 µM) |
| Cc1ccc(NC(=O)c2cc3ccccc3o2)cc1 | 1.5 (≈ 5.97 µM) |
| CC(=O)c1ccc(OCC(=O)NCc2ccc(F)cc2)cc1 | > 45.2 |
| CCc1c(C)nc(N2CCN(c3cccc(OC)c3)CC2)[nH]c1=O | 15.8 (≈ 48.1 µM) |
| O=C(O)/C=C/C(=O)Nc1ccc(Cl)c(C(=O)O)c1 | 38 (≈ 141 µM) |
| O=c1cc(-c2ccccc2)c2cc(Cl)ccc2[nH]1 | < 0.5 |
| CC1CC(C#N)N(N(C)C)C1=C(C#N)C#N (centres undefined) | > 32.3 |
| CC(=O)Nc1ccc(C(=O)COC(=O)C2CCCCC2)c(F)c1 | 10.7 (≈ 33.3 µM) |
| COc1cc(OC)c(C(=O)NC2CCCc3ccccc32)cc1OC (centres undefined) | 44.3 (≈ 130 µM) |
| CC(C)(C)N1C(=O)c2ccc(C(=O)Nc3ccc(O)cc3)cc2C1=O | 17.4 (≈ 51.4 µM) |
| N#Cc1c(F)cccc1NCCCn1ccnc1 | 30.7 (≈ 126 µM) |
| Cc1ccc2oc(=O)cc(CN3CC(C)OC(C)C3)c2c1 (centres undefined) | > 43.1 |
| O=C(CCNC(=O)c1ccco1)Nc1nc2ccccc2s1 | 4.5 (≈ 14.3 µM) |
| O=C(O)c1ccc(NC(=O)c2cc3ccccc3o2)cc1 | > 42.2 |

| Structure (SMILES) | solubility kinetic [µg/mL] |
| --- | --- |
| CCCn1c(SCC(=O)Nc2ccc(F)c(Cl)c2)nc(O)cc1=O | > 55.8 |
| O=C(Nc1cccc(Cl)c1)Nc1ccccc1C(=O)O | > 43.6 |
| N/C(Cc1ccc([N+](=O)[O-])cc1)=N\OC(=O)C1CCCCC1 | 41.2 (≈ 135 µM) |
| CCCCC(=O)Nc1cc(-c2nc3ncccc3o2)ccc1C | 4 (≈ 12.9 µM) |
| Cc1cc(C)c(S(=O)(=O)N2CCCC2)c(C)c1 | 30.4 (≈ 120 µM) |
| CCOC(=O)c1oc2ccc(Cl)cc2c1NC(C)=O | 4.8 (≈ 17 µM) |
| OCCCNC(=S)Nc1ccc2nccnc2c1 | > 39.3 |
| CC(Sc1nccn1C)C(=O)Nc1ccccc1 (centres undefined) | > 39.2 |
| CCc1nc2sc3c(c2c(=S)[nH]1)CC(C)(C)OC3 | 1.9 (≈ 6.78 µM) |
| Cc1ccc(CN2C(=O)c3ccccc3NC2c2ccccn2)cc1 (centres undefined) | > 49.4 |
| O=C(NC1CCSc2ccccc21)c1ccccc1Cl (centres undefined) | 9.3 (≈ 30.6 µM) |
| O=C(NCCN1CCCCC1)Nc1ccc(F)cc1 | 37.4 (≈ 141 µM) |
| CC(C)c1ccc(C(N)=S)cc1 | 25.3 (≈ 141 µM) |
| CC(C(=O)NCC1CCCCC1)N1CCc2ccccc2C1 (centres undefined) | 41.9 (≈ 139 µM) |
| COc1ccc(CNc2ncc(-c3ccccc3)n2C)cc1 | 28.6 (≈ 97.5 µM) |
| CCOC(=O)c1c(C)[nH]c(C)c1C(=O)COC(=O)CCc1ccccc1 | > 53.6 |
| N#CC1=C(N)Oc2cc(N)ccc2C1c1cccc(Br)c1 (centres undefined) | 3.5 (≈ 10.2 µM) |
| CC1CC(C)CN(c2ncnc3c2cnn3C)C1 (centres undefined) | > 36.8 |
| Cc1c(N)c(C)c([N+](=O)[O-])c(C)c1[N+](=O)[O-] | 6.9 (≈ 30.6 µM) |
| Cc1ccccc1N1CC(C(=O)N2CC(C)OC(C)C2)CC1=O (centres undefined) | 47.1 (≈ 149 µM) |
| CS(=O)(=O)O.OC(CCN1CCCCC1)(c1ccccc1)c1ccccc1 | > 58.7 |
| O=C1CCCN1CCCNC(=S)Nc1ccc(F)c(Cl)c1 | > 49.5 |
| CC1CCCN(c2c([N+](=O)[O-])cc(C(=O)O)cc2[N+](=O)[O-])C1 (centres undefined) | 46.2 (≈ 149 µM) |
| CC(C)c1ccc(N=Cc2c(O)c3ccccc3oc2=O)cc1 | 4.3 (≈ 14 µM) |

| Structure (SMILES) | solubility kinetic [µg/mL] |
| --- | --- |
| Cc1ccc(NC(=O)COC(=O)c2cccc(C)c2[N+](=O)[O-])cc1S(=O)(=O)N1CCCCC1 | 3.8 (≈ 7.99 µM) |
| CC1CCC2(CC1)NC(=O)N(CC(=O)Nc1cccc(S(=O)(=O)N3CCCCC3)c1)C2=O (centres undefined) | 2.2 (≈ 4.76 µM) |
| CC(C)C(=O)N1CCN(c2ccccc2NC(=O)c2ccc(Br)o2)CC1 | 52.2 (≈ 124 µM) |
| CCn1ccc(C(=O)NCc2ccc3c(c2)OCO3)n1 | > 41 |
| O=C(O)CCN1C(=O)C2C3c4ccccc4C(c4ccccc43)[C@@H]2C1=O (some centres undefined) | 46.8 (≈ 135 µM) |
| Cc1cc(C(=O)OCC(=O)Nc2ccccc2C#N)c(C)o1 | 8.9 (≈ 29.8 µM) |
| O=C(CCN1C(=O)C2CC=CCC2C1=O)Nc1ccccc1Cl (centres undefined) | > 49.9 |
| O=C(CCc1ccccc1F)N1CCN(c2ccccc2)CC1 | 41.6 (≈ 133 µM) |
| O=C(O)CN1CCN(Cc2cccc(Cl)c2)C1=O | > 40.3 |
| Cc1cc(C)nc(SCc2ccc(Cl)cc2)n1 | 0.6 (≈ 2.27 µM) |
| Cc1cc(Br)ccc1NC(=S)NCCc1ccccc1 | 8.6 (≈ 24.6 µM) |
| CCN(CC)c1nc2c(c(=O)[nH]c(=O)n2C)n1Cc1ccccc1 | 30.5 (≈ 93.2 µM) |
| O=S(=O)(c1ccc(Cl)cc1)N1CCc2ccccc21 | 6.1 (≈ 20.8 µM) |
| Oc1ccc(NCc2cccs2)cc1 | 26.5 (≈ 129 µM) |
| CN(CC(=O)NC(=O)Nc1ccccc1F)Cc1ccccc1 | 4.7 (≈ 14.9 µM) |
| CCOC(=O)N1CCC(N2CCN(c3ccccc3)CC2)CC1.Cl | 51.1 |
| CC(Oc1cccc(Cl)c1)C(=O)NCc1ccc(S(N)(=O)=O)cc1 (centres undefined) | 53.3 (≈ 145 µM) |
| O=C(Cc1ccc(Br)cc1)NCc1ccccc1 | 4.1 (≈ 13.5 µM) |
| COc1ccc(CCN=Cc2ccccc2O)cc1OC | > 42.8 |
| CC(CN1CCCC1)OC(=O)c1ccc(Cl)cc1Cl.Cl (centres undefined) | > 50.8 |
| Nn1c(C2CCCCC2)nc2ccccc2c1=O | > 36.5 |
| COc1cccc([C@@]2(O)CCCC[C@@H]2CN(C)C)c1 | > 39.5 |
| N[C@@H](Cc1ccccc1)C(=O)N1C[C@H]2C[C@@H](C1)c1cccc(=O)n1C2 | 49 (≈ 145 µM) |
| CC(=O)Nc1ccc(NC(=O)c2cccc3ccccc23)cc1 | 1.7 (≈ 5.59 µM) |

| Structure (SMILES) | solubility kinetic [µg/mL] |
| --- | --- |
| CCOC(=O)c1ccc(NC(=O)c2nc(SC)ncc2Cl)cc1 | 1 (≈ 2.84 µM) |
| O=C(NCCc1ccccc1)c1ccc(Cl)cc1[N+](=O)[O-] | > 45.7 |
| Cc1ccc(OCC(=O)NC(C)c2ccccc2)c([N+](=O)[O-])n1 (centres undefined) | 47.1 (≈ 149 µM) |
| Cc1ccc(O)c(NC(=S)NC(=O)Cc2ccc(Cl)cc2)c1 | 1.3 (≈ 3.88 µM) |
| Cn1c(SCC(=O)Nc2ccccc2[N+](=O)[O-])nnc1C(F)(F)F | > 54.2 |
| Cc1ccc(S(=O)(=O)NC2CC2)cc1[N+](=O)[O-] | > 38.4 |
| O=C(CCN1C(=O)C2C3CCC(C3)C2C1=O)OCC(=O)c1ccc(Cl)cc1 (centres undefined) | > 58.5 |
| Cc1ccc(C)c(S(=O)(=O)N2CCC3(CC2)OCCO3)c1 | > 46.7 |
| O=C(O)/C=C/C(=O)N1CCN(C(c2ccccc2)c2ccccc2)CC1 | > 52.6 |
| O=C(Nc1nnc(-c2ccccc2)o1)c1cccc(S(=O)(=O)N2CCOCC2)c1 | > 62.2 |
| COc1ccc2[nH]c(=S)cc(C)c2c1 | 8.9 (≈ 43.4 µM) |
| Fc1ccccc1-c1nc(-c2ccncc2)no1 | 6 (≈ 24.9 µM) |
| CCC(=O)NC1OC(CO)C(O)C(O)C1O (centres undefined) | > 35.3 |
| CC(=O)c1cccc(NC(=S)NCCc2ccc(F)cc2)c1 | > 47.5 |
| NC(=O)Cn1c(=O)n(-c2ccccc2)c(=O)c2oc3ccccc3c21 | 2.6 (≈ 7.75 µM) |
| Cc1ccc(-c2csc(NC(=O)c3ccccc3F)c2C(=O)O)cc1 | > 53.3 |
| Cc1cc(C(=O)CCC(=O)Nc2ncccc2O)c(C)s1 | > 45.7 |
| Cc1ccc(C(=O)NC2CC3CCC(C2)N3)cc1 (centres undefined) | > 36.7 |
| Cc1cc(C)cc(NC(=S)NC(=O)Cc2ccccc2)c1 | 0.5 (≈ 1.68 µM) |
| CCN(Cc1ccncc1)Cc1c(O)ccc2ccccc12 | 31.1 (≈ 106 µM) |
| O=C(O)c1ccc(S(=O)(=O)N2CCOCC2)o1 | 33.9 (≈ 130 µM) |
| Cc1nc(COc2ccccc2Cl)sc1-c1ccnc(N)n1 | 1.2 (≈ 3.61 µM) |
| O=C(NC1CCS(=O)(=O)C1)C1C2CC3CC(C2)CC1C3 (centres undefined) | > 44.6 |
